These results are taken from patent EP0815110B1.

The structures appear in SMILES notation. Read-outs that look alike come from different tables or passages of the source.

Holding throughout (type): biochemical, Ratte
In test [1] the target is NADH-Ubichinon-1-Reduktase (Rattus norvegicus, UniProt A6K8N6+P03889+Q641Y2). The test can be described thus: NADH-ubiquinone-1 reductase (complex I) test, spectrophotometric at 340 nm.
The target in test [2] is NADH-Oxidase (Rattus norvegicus, UniProt A6K8N6+P03889+Q641Y2). Description: NADH oxidase activity of complex I of the mitochondrial respiratory chain.
For test [3], the system named is Succinat-Cytochrom-c-Reduktase. Description: Succinate-cytochrome-c reductase test (complex II/III), spectrophotometric at 550 nm. The protocol: Die Isolierung von SMP's aus Rattenleber erfolgte nach (Ragan et al., 1987; Rickwood et al., 1987). • 8.1 Hemmung des Komplexes I der Atmungskette in SMP's durch N-Me-TaClo Komplex I (NADH-Dehydrogenase) der mitochondrialen Atmungskette katalysiert im ersten Schritt eine NADH-Oxidation. Die dabei freiwerdenden Elektronen werden in einem zweiten Schritt auf Coenzym Q bzw. Ubichinon übertragen. Ein typischer Testansatz (modifiziert nach Ragan et al., 1987) enthält dabei 20 mM K-Phosphat Puffer, pH 8.0, 0.2 mM NADH, 1 mM KCN, SMP (ca. 0.3 mg Protein/ml) und +/- 250 µM N-Me-TaClo (25 mM methanolische Stammlösung). Der Start der Reaktion erfolgt durch Zugabe von 50 µM Ubichinon-1. Die Messung der Reaktion erfolgt spektralphotometrisch bei einer Wellenlänge von 340 nm während der linearen Phase. Bei Zugabe von N-Me-TaClo erfolgt eine 100proz. Hemmung der Ubichinon-Reduktion (s.a. Tabelle 1). • 8.2 Hemmung der elektronenübertragenden Reaktionen auf Coenzym Q: NADH-Cytochrom-c-Reduktase und Succinat-Cytochrom-c-Reduktase Coenzym Q wird sowohl durch freiwerdende Elektronen bei der Komplex-I-katalysierten NADH-Oxidation, als auch bei der Komplex-II (Succinat-Coenzym-Q-Reduktase) -katalysierten Reaktion reduziert. Messungen dieser Reaktionswege mit anschließendem Elektronenfluß über den Komplex III bis zur Cytochrom-c-Reduktion lassen sich mittels folgender Tests untersuchen und durch die hier vorgestellten halogenierten β-Carbolinderivate (im folgenden am Beispiel von N-Me-TaClo) hemmen: • NADH-Cytochrom-c-Reduktase-Test (modifiziert nach Sottocasa et al., 1967) Ein typischer Testansatz enthält 25 mM K-Phosphat-Puffer, pH 7.5, 0.2 mM NADH, 0.1 mM Cytochrom-c, 0.5 mM KCN und +/- 250 µM N-Me-TaClo (25 mM methanolische Stammlösung). Die Messung der Reaktion erfolgt spektralphotometrisch bei einer Wellenlänge von 550 nm während der linearen Phase. Bei Zugabe von N-Me-Taclo erfolgt eine 100proz. Hemmung der Reaktion (s.a. Tabelle 1). • - Succinat-Cytochrom-c-Reduktase-Test (modifiziert nach Sottocasa et al., 1967) Ein typischer Testansatz enthält 55 mM K-Phosphat-Puffer, pH 7.5, 3 mM Na-Succinat, 0.1 mM Cytochrom c, +/- 250 µM N-Me-TaClo (25 mM methanolische Stammlösung) und 0.5 mM KCN. Gestartet wird die Reaktion mit SMP (ca. 0.3 mg Protein/ml). Die Messung der Reaktion erfolgt spektralphotometrisch bei einer Wellenlänge von 550 nm während der linearen Phase. Bei Zugabe von N-Me-TaClo erfolgt eine 100proz. Hemmung der Reaktion (s. auch Tabelle 1). • - Einsatz der halogenierten β-Carboline als Hemmstoffe der NADH- bzw. Succinat-gekoppelten Oxidation; Polarographische Messungen der Enzymaktivitäten an SMP's ("submitochondrial particles") Bei der polarographischen Messung wird die Aktivität der Atmungskette in ihrer Gesamtheit ausgehend von der NADH-Oxidation (Komplex I) bzw. […]

Test [4] has as its target NADH-Cytochrom-c-Reduktase (Rattus norvegicus, UniProt A6K8N6+P03889+Q641Y2). The test can be described thus: NADH-cytochrome-c reductase test (complex I/III), spectrophotometric at 550 nm. The method, then: Die Isolierung von SMP's aus Rattenleber erfolgte nach (Ragan et al., 1987; Rickwood et al., 1987). • 8.1 Hemmung des Komplexes I der Atmungskette in SMP's durch N-Me-TaClo Komplex I (NADH-Dehydrogenase) der mitochondrialen Atmungskette katalysiert im ersten Schritt eine NADH-Oxidation. Die dabei freiwerdenden Elektronen werden in einem zweiten Schritt auf Coenzym Q bzw. Ubichinon übertragen. Ein typischer Testansatz (modifiziert nach Ragan et al., 1987) enthält dabei 20 mM K-Phosphat Puffer, pH 8.0, 0.2 mM NADH, 1 mM KCN, SMP (ca. 0.3 mg Protein/ml) und +/- 250 µM N-Me-TaClo (25 mM methanolische Stammlösung). Der Start der Reaktion erfolgt durch Zugabe von 50 µM Ubichinon-1. Die Messung der Reaktion erfolgt spektralphotometrisch bei einer Wellenlänge von 340 nm während der linearen Phase. Bei Zugabe von N-Me-TaClo erfolgt eine 100proz. Hemmung der Ubichinon-Reduktion (s.a. Tabelle 1). • 8.2 Hemmung der elektronenübertragenden Reaktionen auf Coenzym Q: NADH-Cytochrom-c-Reduktase und Succinat-Cytochrom-c-Reduktase Coenzym Q wird sowohl durch freiwerdende Elektronen bei der Komplex-I-katalysierten NADH-Oxidation, als auch bei der Komplex-II (Succinat-Coenzym-Q-Reduktase) -katalysierten Reaktion reduziert. Messungen dieser Reaktionswege mit anschließendem Elektronenfluß über den Komplex III bis zur Cytochrom-c-Reduktion lassen sich mittels folgender Tests untersuchen und durch die hier vorgestellten halogenierten β-Carbolinderivate (im folgenden am Beispiel von N-Me-TaClo) hemmen: • NADH-Cytochrom-c-Reduktase-Test (modifiziert nach Sottocasa et al., 1967) Ein typischer Testansatz enthält 25 mM K-Phosphat-Puffer, pH 7.5, 0.2 mM NADH, 0.1 mM Cytochrom-c, 0.5 mM KCN und +/- 250 µM N-Me-TaClo (25 mM methanolische Stammlösung). Die Messung der Reaktion erfolgt spektralphotometrisch bei einer Wellenlänge von 550 nm während der linearen Phase. Bei Zugabe von N-Me-Taclo erfolgt eine 100proz. Hemmung der Reaktion (s.a. Tabelle 1). • - Succinat-Cytochrom-c-Reduktase-Test (modifiziert nach Sottocasa et al., 1967) Ein typischer Testansatz enthält 55 mM K-Phosphat-Puffer, pH 7.5, 3 mM Na-Succinat, 0.1 mM Cytochrom c, +/- 250 µM N-Me-TaClo (25 mM methanolische Stammlösung) und 0.5 mM KCN. Gestartet wird die Reaktion mit SMP (ca. 0.3 mg Protein/ml). Die Messung der Reaktion erfolgt spektralphotometrisch bei einer Wellenlänge von 550 nm während der linearen Phase. Bei Zugabe von N-Me-TaClo erfolgt eine 100proz. Hemmung der Reaktion (s. auch Tabelle 1). • - Einsatz der halogenierten β-Carboline als Hemmstoffe der NADH- bzw. Succinat-gekoppelten Oxidation; Polarographische Messungen der Enzymaktivitäten an SMP's ("submitochondrial particles") Bei der polarographischen Messung wird die Aktivität der Atmungskette in ihrer Gesamtheit ausgehend von der NADH-Oxidation (Komplex I) bzw. Succinat-Oxidation (Komplex II) bis zur O2-Reduktion (Komplex IV) bestimmt. Als Maß der Aktivität wird der O2-Verbrauch bestimmt. Der Test wird unter Verwendung einer Clark-Sauerstoffelektrode (Rank Brothers, England) bei 30°C in 2 ml Puffer (50 mM K-Phosphat, pH 7.4, 250 mM Saccharose) und 0.15 mg SMP-Protein/ml durchgeführt. Nach 5 minütiger Vorinkubation ± Inhibitor wird die Messung mit NADH (Endkonzentration 0.28 mM) bzw. Succinat (Endkonzentration 20 mM) gestartet. Bei der Succinat-gekoppelten Oxidation werden die SMP's vorher nach Krueger et al., (1993) mit Malonat aktiviert.

Test [5] has as its target T1, Succinat-Dehydrogenase (Rattus norvegicus, UniProt P21913+Q641Z9+Q6PCT8+Q920L2).
T1 construct: Hemmung des Komplexes I bzw; II der mitochondrialen Atmungskette in Rattenhirn-Homogenaten; from tissue; host or cells: rat brain homogenate
The test can be described thus: Succinate dehydrogenase (complex II) activity. Conditions: Rattenhirn-Homogenate.

Test [6] addresses Cytochrom c Oxidase (Rattus norvegicus, UniProt P00406+P05503). Description: Cytochrome c oxidase (complex IV) activity. Conditions: 500 µM TaClo, Rattenhirn-Homogenate.
Where [7] appears, read: bei 500 µmol, Rattenhirn-Homogenate, read-out: Komplex-I-Hemmung Inhibierungsrate (in %) bei gegebener Konzentration (in µmol).
Where [8] appears, read: read-out: Inhibierungsrate durch TaClo.
Setting [9] is: bei 500 µmol, read-out: Komplex-II-Hemmung Inhibierungsrate (in %) bei gegebener Konzentration (in µmol).
Where [10] appears, read: bei 250 µmol, read-out: Komplex-II-Hemmung Inhibierungsrate (in %) bei gegebener Konzentration (in µmol).

Sequence of NADH-Cytochrom-c-Reduktase (Q641Y2 34-463): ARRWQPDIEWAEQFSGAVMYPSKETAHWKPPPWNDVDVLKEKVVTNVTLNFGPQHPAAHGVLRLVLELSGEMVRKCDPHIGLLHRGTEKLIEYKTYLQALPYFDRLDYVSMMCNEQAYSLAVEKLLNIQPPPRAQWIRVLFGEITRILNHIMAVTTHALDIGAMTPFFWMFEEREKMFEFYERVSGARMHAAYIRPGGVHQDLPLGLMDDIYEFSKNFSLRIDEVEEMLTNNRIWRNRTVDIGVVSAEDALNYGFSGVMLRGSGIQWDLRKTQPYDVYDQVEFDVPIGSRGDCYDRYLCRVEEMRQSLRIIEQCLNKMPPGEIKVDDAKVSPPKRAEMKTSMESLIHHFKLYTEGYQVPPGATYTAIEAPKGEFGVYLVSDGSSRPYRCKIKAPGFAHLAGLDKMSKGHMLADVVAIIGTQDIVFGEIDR
Sequence of NADH-Cytochrom-c-Reduktase (P03889 whole entry): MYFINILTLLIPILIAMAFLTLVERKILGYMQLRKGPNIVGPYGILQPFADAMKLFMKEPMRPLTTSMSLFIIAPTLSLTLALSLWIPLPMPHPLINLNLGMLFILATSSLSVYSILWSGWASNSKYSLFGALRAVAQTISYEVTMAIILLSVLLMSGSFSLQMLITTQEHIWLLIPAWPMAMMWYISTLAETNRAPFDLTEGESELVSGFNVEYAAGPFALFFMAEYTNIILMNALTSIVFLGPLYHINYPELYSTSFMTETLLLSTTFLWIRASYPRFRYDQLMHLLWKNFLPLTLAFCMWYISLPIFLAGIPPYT
Sequence of NADH-Cytochrom-c-Reduktase (A6K8N6 entry or part of it): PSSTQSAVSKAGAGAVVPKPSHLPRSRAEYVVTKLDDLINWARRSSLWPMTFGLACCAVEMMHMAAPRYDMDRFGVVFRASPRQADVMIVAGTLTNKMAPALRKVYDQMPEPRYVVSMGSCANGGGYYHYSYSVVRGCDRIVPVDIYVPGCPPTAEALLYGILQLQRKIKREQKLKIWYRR
T1 sequence (Q920L2 35-656): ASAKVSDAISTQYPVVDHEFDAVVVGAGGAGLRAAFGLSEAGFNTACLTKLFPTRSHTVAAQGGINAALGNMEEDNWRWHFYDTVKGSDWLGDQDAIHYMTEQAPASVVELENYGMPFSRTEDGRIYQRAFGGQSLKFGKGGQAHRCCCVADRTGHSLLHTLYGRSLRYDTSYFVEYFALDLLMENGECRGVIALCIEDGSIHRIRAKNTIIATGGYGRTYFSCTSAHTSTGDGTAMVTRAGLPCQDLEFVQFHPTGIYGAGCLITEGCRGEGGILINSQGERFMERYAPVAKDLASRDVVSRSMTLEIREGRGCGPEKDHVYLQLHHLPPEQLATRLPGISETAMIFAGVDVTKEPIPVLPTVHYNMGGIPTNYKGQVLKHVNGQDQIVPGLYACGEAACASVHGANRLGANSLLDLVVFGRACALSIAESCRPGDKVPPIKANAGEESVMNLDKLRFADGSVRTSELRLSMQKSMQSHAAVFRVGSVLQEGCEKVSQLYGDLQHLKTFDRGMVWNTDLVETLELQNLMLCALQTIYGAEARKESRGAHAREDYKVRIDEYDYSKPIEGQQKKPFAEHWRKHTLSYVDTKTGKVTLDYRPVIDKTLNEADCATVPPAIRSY
T1 sequence (P21913 31-282): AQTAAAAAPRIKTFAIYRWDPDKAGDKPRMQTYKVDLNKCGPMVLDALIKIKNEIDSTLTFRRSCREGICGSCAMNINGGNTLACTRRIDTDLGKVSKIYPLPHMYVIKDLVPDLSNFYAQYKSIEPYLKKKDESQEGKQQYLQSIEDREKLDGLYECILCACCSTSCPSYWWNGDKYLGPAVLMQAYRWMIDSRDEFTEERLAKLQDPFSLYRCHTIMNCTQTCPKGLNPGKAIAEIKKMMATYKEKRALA
T1 sequence (Q641Z9 1-169): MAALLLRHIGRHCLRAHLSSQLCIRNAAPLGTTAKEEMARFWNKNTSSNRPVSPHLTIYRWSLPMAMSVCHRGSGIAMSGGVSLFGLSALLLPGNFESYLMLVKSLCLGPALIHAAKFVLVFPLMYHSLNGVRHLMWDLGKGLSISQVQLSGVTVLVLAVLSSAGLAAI
T1 sequence (Q6PCT8 57-159): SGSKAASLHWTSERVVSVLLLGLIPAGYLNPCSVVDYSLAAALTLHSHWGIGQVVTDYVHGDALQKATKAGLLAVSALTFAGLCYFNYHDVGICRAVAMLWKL
Sequence of NADH-Ubichinon-1-Reduktase (P03889 whole entry): as the sequence (P03889 whole entry) above
Sequence of NADH-Ubichinon-1-Reduktase (Q641Y2 34-463): as the sequence (Q641Y2 34-463) above
Sequence of NADH-Ubichinon-1-Reduktase (A6K8N6 entry or part of it): as the sequence (A6K8N6 entry or part of it) above

`O=C(CCl)N1CCc2c([nH]c3ccccc23)C1C(Cl)(Cl)Cl` (racemic) [N-Monochloracetyl-TaClo]: the inhibition at 500 µM in test [1] (setting [7]) turned out to be 95%.

With `ClC(Cl)(Cl)C1NCCc2c1[nH]c1ccccc21` (racemic) [TaClo, 1-Trichlormethyl-1,2,3,4-tetrahydro-β-carbolin], the “Enzymaktivität (nmol/min/mg Protein)” value in test [1] (NADH CoQ1 Reduktase, 500 µM TaClo, Rattenhirn-Homogenate, Kontrolle 10.9) was 1.6 nmol/min/mg Protein; in test [2] (NADH-Oxidase, 500 µM TaClo, Rattenhirn-Homogenate, Kontrolle 141.0), 138.0 nmol/min/mg Protein; in test [3] (Succinat Cyt c Reduktase, 500 µM TaClo, Rattenhirn-Homogenate, Kontrolle 11.9) it was 9.2 nmol/min/mg Protein; in test [4] (NADH Cyt c Reduktase, 500 µM TaClo, Rattenhirn-Homogenate, Kontrolle 24.6), 14.7 nmol/min/mg Protein; in test [5] (Succinat Dehydrogenase, 500 µM TaClo, Kontrolle 29.6), 30.1 nmol/min/mg Protein; in test [6] (Kontrolle 45.8) it was 38.9 nmol/min/mg Protein. The inhibition at 500 µM in test [1] (setting [8]) came out at 85%; in test [2] (setting [8]), 0%; in test [4] (setting [8]) it was 40%; in test [5] (Succinat Dehydrogenase, 500 µM TaClo, read-out: Inhibierungsrate durch TaClo) it was 0%; in test [5] (setting [9]), 30%; in test [6] (setting [8]), 20%. The “Einfluß auf die NADH-Oxidation” value in test [2] (result in words, s. Tabelle 2) was “beeinflußt jedoch nicht die NADH-Oxidation”. In test [3] (Succinat Cyt c Reduktase, 500 µM TaClo, Rattenhirn-Homogenate), the “Inhibierungsrate durch TaClo” value stood at 22%.

On to `CN1CCc2c([nH]c3ccccc23)C1C(Cl)(Cl)Cl` (racemic) [N-Me-TaClo], for which the inhibition at 250 µM in test [1] (250 µM N-Me-TaClo, SMP's aus Rattenleber, read-out: Hemmung der Ubichinon-Reduktion) worked out at 100%; in test [1] (NADH-Ubichinon-1-Reduktase, 250 µM, Rattenhirn-Homogenate, read-out: Inhibierung bei 250 µM N-Me-TaClo) it was 100%; in test [2] (NADH-Oxidase, 250 µM, Rattenhirn-Homogenate, read-out: Inhibierung bei 250 µM N-Me-TaClo) it was 0%; in test [4] (250 µM N-Me-TaClo, SMP's aus Rattenleber, read-out: Hemmung der Reaktion (NADH-Cytochrom-c-Reduktase-Test)), 100%; in test [4] (NADH-Cytochrom-c-Reduktase, 250 µM, Rattenhirn-Homogenate, read-out: Inhibierung bei 250 µM N-Me-TaClo) it was 70%; in test [5] (Succinat-Dehydrogenase, 250 µM, read-out: Inhibierung bei 250 µM N-Me-TaClo), 100%. Further, in test [5] (setting [10]), the inhibition at 250 µM is no less than 100%. Moreover, the “Hemmung der Reaktion (Succinat-Cytochrom-c-Reduktase-Test)” value in test [3] (250 µM N-Me-TaClo, SMP's aus Rattenleber) turned out to be 100 proz. For the same molecule, in test [3] (Succinat-Cytochrom-c-Reduktase, 250 µM, Rattenhirn-Homogenate), the “Inhibierung bei 250 µM N-Me-TaClo” value is 80%.

For `C=C(C)[C@H]1Cc2c(ccc3c2O[C@@H]2COc4cc(OC)c(OC)cc4[C@@H]2C3=O)O1` [Rotenon, reference compound], the “Enzymaktivität (nmol/min/mg Protein)” value in test [1] turned out to be 4.2 nmol/min/mg Protein; in test [4], 5.7 nmol/min/mg Protein.

For `ClC(Cl)(Cl)C1c2[nH]c3ccccc3c2CCN1Cc1ccccc1` (racemic) [N-Bzl-TaClo], the inhibition at 250 µM in test [5] (setting [10]) amounted to 55%.

Turning to `FC(F)(F)C1=NCCc2c1[nH]c1ccccc21` [DDH-TaFlu, 1-Trifluormethyl-3,4-didehydro-β-carbolin], the inhibition at 250 µM in test [5] (setting [10]) worked out at 20%.

Take `O=CN1CCc2c([nH]c3ccccc23)C1C(Br)(Br)Br` (racemic) [N-Formyl-TaBro]: the inhibition at 500 µM in test [1] (setting [7]) came out at 83%.

In the case of `ClC(Cl)=C1NCCc2c1[nH]c1ccccc21` [Dichlormethylen-TaClo], the inhibition at 250 µM in test [5] (setting [10]) was determined as 40%.

Consider `O=CN1CCc2c([nH]c3ccccc23)C1=C(Br)Br` [N-Formyl-dibrommethylen-TaBro], for which the inhibition at 500 µM in test [1] (setting [7]) was no less than 100%.

In the case of `COC(=O)[C@@H]1Cc2c([nH]c3ccccc23)C(C(Cl)(Cl)Cl)N1` (stereo partly shown) [3-COOMe-TaClo], the inhibition at 500 µM in test [5] (setting [9]) is 75%.

In the case of `O=C(N1CCc2c([nH]c3ccccc23)C1C(Cl)(Cl)Cl)C(Cl)(Cl)Cl` (racemic) [N-Trichloracetyl-TaClo], in test [1] (setting [7]), the inhibition at 500 µM was 90%.

With `C=CCN1CCc2c([nH]c3ccccc23)C1C(Cl)(Cl)Cl` (racemic) [N-Allyl-TaClo], the inhibition at 500 µM in test [5] (setting [9]) was no less than 100%.

On to `CC(=O)N1CCc2c([nH]c3ccccc23)C1C(Cl)(Cl)Cl` (racemic) [N-Acetyl-TaClo], for which the inhibition at 500 µM in test [1] (setting [7]) came to 20%.

In the case of `CCN1CCc2c([nH]c3ccccc23)C1C(Cl)(Cl)Cl` (racemic) [N-Ethyl-TaClo], the inhibition at 500 µM in test [5] (setting [9]) worked out at 75%.

For `COC(=O)C1Cc2c([nH]c3ccccc23)C(C(Cl)(Cl)Cl)N1Cc1ccccc1` (stereo not shown) [N-Bzl-3-COOMe-TaClo], in test [5] (setting [9]), the inhibition at 500 µM was determined as 60%.
